Assays:
[1] = target: Testis-specific serine/threonine-protein kinase 1 (Homo sapiens) (UniProt Q9BXA7); test: Inhibition of TSSK1 (unknown origin) at 100 nM
Rattus norvegicus = test: Unbound AUC in rat at 5 mg/kg, po; type: ADME, organism-based; conditions: in vivo
[2] = target: MAP kinase-activated protein kinase 3 (Homo sapiens) (UniProt Q16644); test: Inhibition of MAPKAPK3 (unknown origin) at 100 nM
[3] = target: Homeodomain-interacting protein kinase 2 (Homo sapiens) (UniProt Q9H2X6); test: Inhibition of HIPK2 (unknown origin) at 100 nM
[4] = target: 3-phosphoinositide-dependent protein kinase 1 (Homo sapiens) (UniProt O15530); test: Inhibition of PDK1 (unknown origin) by direct binding assay at 100 nM
[5] = target: RAC-beta serine/threonine-protein kinase (Homo sapiens) (UniProt P31751); test: Inhibition of AKT2 (unknown origin) at 100 nM
[6] = target: Insulin receptor-related protein (Homo sapiens) (UniProt P14616); test: Inhibition of IRR (unknown origin) at 100 nM
[7] = target: Serine/threonine-protein kinase DCLK2 (Homo sapiens) (UniProt Q8N568); test: Inhibition of DCAMKL2 (unknown origin) at 100 nM
[8] = target: NUAK family SNF1-like kinase 1 (Homo sapiens) (UniProt O60285); test: Inhibition of ARK5 (unknown origin) at 100 nM
[9] = target: Homeodomain-interacting protein kinase 4 (Homo sapiens) (UniProt Q8NE63); test: Inhibition of HIPK4 (unknown origin) at 100 nM
[10] = target: Aurora kinase A (Homo sapiens) (UniProt O14965); test: Inhibition of Aurora A (unknown origin) at 100 nM
[11] = target: Mitogen-activated protein kinase 14 (Homo sapiens) (UniProt Q16539); test: Inhibition of p38alpha (unknown origin) at 100 nM
[12] = target: Dual specificity tyrosine-phosphorylation-regulated kinase 4 (Homo sapiens) (UniProt Q9NR20); test: Inhibition of DYRK4 (unknown origin) at 100 nM
[13] = target: Serine/threonine-protein kinase D3 (Homo sapiens) (UniProt O94806); test: Inhibition of PKD3 (unknown origin) at 100 nM
[14] = target: Serine/threonine-protein kinase Chk2 (Homo sapiens) (UniProt O96017); test: Inhibition of CHK2 (unknown origin) at 100 nM
[15] = target: NT-3 growth factor receptor (Homo sapiens) (UniProt Q16288); test: Inhibition of TRKC (unknown origin) at 100 nM
[16] = target: Cyclin-dependent kinase 1/cyclin B1 (Homo sapiens) (UniProt P06493+P14635); test: Inhibition of CDK1/cyclinB (unknown origin) at 100 nM; type: protein-complex assay
[17] = target: Rhodopsin kinase GRK7 (Homo sapiens) (UniProt Q8WTQ7); test: Inhibition of GRK7 (unknown origin) at 100 nM
[18] = target: Ephrin type-A receptor 7 (Homo sapiens) (UniProt Q15375); test: Inhibition of EPHA7 (unknown origin) at 100 nM
[19] = target: Leukocyte tyrosine kinase receptor (Homo sapiens) (UniProt P29376); test: Inhibition of LTK (unknown origin) at 100 nM
[20] = target: Activated CDC42 kinase 1 (Homo sapiens) (UniProt Q07912); test: Inhibition of TNK2 (unknown origin) at 100 nM
[21] = target: Casein kinase II subunit alpha' (Homo sapiens) (UniProt P19784); test: Inhibition of CK2alpha2 (unknown origin) at 100 nM
[22] = target: Protein kinase C iota type (Homo sapiens) (UniProt P41743); test: Inhibition of PKCiota (unknown origin) at 100 nM
[23] = target: DNA-dependent protein kinase catalytic subunit (Homo sapiens) (UniProt P78527); test: Inhibition of DNA-PK (unknown origin) at 100 nM
[24] = target: 3-phosphoinositide-dependent protein kinase 1 (Homo sapiens) (UniProt O15530); test: Inhibition of PDK1 (unknown origin) at 100 nM
[25] = target: Mitogen-activated protein kinase kinase kinase 11 (Homo sapiens) (UniProt Q16584); test: Inhibition of MLK3 (unknown origin) at 100 nM
[26] = target: G protein-coupled receptor kinase 6 (Homo sapiens) (UniProt P43250); test: Inhibition of GRK6 (unknown origin) at 100 nM
[27] = target: Protein kinase C epsilon type (Homo sapiens) (UniProt Q02156); test: Inhibition of PKCepsilon (unknown origin) at 100 nM
[28] = target: STE20-like serine/threonine-protein kinase (Homo sapiens) (UniProt Q9H2G2); test: Inhibition of SLK (unknown origin) at 100 nM
[29] = target: Protein-tyrosine kinase 6 (Homo sapiens) (UniProt Q13882); test: Inhibition of BRK (unknown origin) at 100 nM
[30] = target: Tyrosine-protein kinase Fes/Fps (Homo sapiens) (UniProt P07332); test: Inhibition of FES (unknown origin) at 100 nM
[31] = target: Cytoplasmic tyrosine-protein kinase BMX (Homo sapiens) (UniProt P51813); test: Inhibition of BMX (unknown origin) at 100 nM
[32] = target: cAMP-dependent protein kinase catalytic subunit PRKX (Homo sapiens) (UniProt P51817); test: Inhibition of PRKX (unknown origin) at 100 nM
[33] = tested on: Receptor-type tyrosine-protein kinase FLT3 (Homo sapiens), P36888 [D835Y]; test: Inhibition of FLT3 D835Y mutant (unknown origin) at 100 nM
[34] = target: Mitogen-activated protein kinase kinase kinase kinase 4 (Homo sapiens) (UniProt O95819); test: Inhibition of MAP4K4 (unknown origin) at 100 nM
[35] = target: Protein kinase C beta type (Homo sapiens) (UniProt P05771); test: Inhibition of PKCbeta2 (unknown origin) at 100 nM
[36] = target: Serine/threonine-protein kinase PAK 6 (Homo sapiens) (UniProt Q9NQU5); test: Inhibition of PAK6 (unknown origin) at 100 nM
[37] = target: Ephrin type-A receptor 3 (Homo sapiens) (UniProt P29320); test: Inhibition of EPHA3 (unknown origin) at 100 nM
[38] = target: Myosin light chain kinase (Homo sapiens) (UniProt Q32MK0); test: Inhibition of MYLK3 (unknown origin) at 100 nM
[39] = target: Serine/threonine-protein kinase haspin (Homo sapiens) (UniProt Q8TF76); test: Inhibition of Haspin (unknown origin) at 100 nM
[40] = target: Myosin light chain kinase, smooth muscle (Homo sapiens) (UniProt Q15746); test: Inhibition of MYLK (unknown origin) at 100 nM
[41] = target: Calcium/calmodulin-dependent protein kinase type 1 (Homo sapiens) (UniProt Q14012); test: Inhibition of CaMKI (unknown origin) at 100 nM
[42] = target: Serine/threonine-protein kinase Nek4 (Homo sapiens) (UniProt P51957); test: Inhibition of NEK4 (unknown origin) at 100 nM

3-phosphoinositide-dependent protein kinase 1 (Homo sapiens), sequence (O15530 whole entry): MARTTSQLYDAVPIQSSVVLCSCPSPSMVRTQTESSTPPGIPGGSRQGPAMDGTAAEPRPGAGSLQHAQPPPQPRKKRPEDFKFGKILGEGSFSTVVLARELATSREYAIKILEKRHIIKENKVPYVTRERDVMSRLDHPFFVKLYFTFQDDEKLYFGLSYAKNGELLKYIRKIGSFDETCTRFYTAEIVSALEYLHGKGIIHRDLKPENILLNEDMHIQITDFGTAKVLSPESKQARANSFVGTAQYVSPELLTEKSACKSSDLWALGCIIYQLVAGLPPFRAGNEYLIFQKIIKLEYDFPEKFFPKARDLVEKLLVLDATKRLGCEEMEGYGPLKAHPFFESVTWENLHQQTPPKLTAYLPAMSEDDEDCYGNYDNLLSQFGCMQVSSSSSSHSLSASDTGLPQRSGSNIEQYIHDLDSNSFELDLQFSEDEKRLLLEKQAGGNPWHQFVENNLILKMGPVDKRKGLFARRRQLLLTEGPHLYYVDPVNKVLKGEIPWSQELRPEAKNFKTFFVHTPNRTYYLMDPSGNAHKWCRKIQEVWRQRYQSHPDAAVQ
Testis-specific serine/threonine-protein kinase 1 (Homo sapiens), sequence (Q9BXA7 whole entry): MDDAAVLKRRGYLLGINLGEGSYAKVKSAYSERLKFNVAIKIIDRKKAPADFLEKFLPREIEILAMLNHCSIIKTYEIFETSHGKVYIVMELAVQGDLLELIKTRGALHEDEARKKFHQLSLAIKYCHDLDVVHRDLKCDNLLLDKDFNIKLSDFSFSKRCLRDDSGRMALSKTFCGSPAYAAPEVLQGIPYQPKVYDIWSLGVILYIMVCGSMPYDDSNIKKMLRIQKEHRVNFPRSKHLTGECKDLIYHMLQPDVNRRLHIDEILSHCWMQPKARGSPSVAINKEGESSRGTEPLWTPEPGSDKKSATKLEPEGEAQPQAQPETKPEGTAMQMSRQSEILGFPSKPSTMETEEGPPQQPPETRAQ
G protein-coupled receptor kinase 6 (Homo sapiens), sequence (P43250 whole entry, looked up): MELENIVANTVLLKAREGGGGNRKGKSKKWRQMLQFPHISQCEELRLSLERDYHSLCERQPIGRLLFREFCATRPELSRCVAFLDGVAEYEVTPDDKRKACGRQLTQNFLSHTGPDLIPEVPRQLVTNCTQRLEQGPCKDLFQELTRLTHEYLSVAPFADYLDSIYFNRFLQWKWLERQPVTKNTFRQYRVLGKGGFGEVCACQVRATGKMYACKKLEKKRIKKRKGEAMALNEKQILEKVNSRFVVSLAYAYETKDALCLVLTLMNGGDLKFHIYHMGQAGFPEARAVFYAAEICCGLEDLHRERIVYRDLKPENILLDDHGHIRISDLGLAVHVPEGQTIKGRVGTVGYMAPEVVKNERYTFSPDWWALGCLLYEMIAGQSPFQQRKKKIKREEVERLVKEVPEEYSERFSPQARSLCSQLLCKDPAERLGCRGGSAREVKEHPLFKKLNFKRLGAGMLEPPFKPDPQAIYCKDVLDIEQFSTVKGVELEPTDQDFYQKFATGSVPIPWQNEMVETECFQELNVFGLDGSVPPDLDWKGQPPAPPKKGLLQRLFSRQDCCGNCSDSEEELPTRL
Protein kinase C iota type (Homo sapiens), sequence (P41743 whole entry): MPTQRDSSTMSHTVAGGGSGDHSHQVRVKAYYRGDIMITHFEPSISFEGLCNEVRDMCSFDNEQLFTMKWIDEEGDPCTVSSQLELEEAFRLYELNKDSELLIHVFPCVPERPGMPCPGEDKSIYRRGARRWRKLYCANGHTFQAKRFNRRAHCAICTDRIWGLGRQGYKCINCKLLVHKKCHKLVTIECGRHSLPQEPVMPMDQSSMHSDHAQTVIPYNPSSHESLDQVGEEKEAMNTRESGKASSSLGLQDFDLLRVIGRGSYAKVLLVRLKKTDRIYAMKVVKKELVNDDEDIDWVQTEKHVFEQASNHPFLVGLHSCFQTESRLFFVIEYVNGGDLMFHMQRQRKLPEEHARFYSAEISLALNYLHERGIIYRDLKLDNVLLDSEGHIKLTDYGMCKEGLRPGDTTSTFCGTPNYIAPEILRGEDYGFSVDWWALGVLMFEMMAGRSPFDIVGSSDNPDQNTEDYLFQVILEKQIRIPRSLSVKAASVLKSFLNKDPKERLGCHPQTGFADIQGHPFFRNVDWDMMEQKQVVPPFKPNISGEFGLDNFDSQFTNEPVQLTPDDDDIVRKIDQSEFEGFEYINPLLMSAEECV
Ephrin type-A receptor 7 (Homo sapiens), sequence (Q15375 28-998 limits assumed): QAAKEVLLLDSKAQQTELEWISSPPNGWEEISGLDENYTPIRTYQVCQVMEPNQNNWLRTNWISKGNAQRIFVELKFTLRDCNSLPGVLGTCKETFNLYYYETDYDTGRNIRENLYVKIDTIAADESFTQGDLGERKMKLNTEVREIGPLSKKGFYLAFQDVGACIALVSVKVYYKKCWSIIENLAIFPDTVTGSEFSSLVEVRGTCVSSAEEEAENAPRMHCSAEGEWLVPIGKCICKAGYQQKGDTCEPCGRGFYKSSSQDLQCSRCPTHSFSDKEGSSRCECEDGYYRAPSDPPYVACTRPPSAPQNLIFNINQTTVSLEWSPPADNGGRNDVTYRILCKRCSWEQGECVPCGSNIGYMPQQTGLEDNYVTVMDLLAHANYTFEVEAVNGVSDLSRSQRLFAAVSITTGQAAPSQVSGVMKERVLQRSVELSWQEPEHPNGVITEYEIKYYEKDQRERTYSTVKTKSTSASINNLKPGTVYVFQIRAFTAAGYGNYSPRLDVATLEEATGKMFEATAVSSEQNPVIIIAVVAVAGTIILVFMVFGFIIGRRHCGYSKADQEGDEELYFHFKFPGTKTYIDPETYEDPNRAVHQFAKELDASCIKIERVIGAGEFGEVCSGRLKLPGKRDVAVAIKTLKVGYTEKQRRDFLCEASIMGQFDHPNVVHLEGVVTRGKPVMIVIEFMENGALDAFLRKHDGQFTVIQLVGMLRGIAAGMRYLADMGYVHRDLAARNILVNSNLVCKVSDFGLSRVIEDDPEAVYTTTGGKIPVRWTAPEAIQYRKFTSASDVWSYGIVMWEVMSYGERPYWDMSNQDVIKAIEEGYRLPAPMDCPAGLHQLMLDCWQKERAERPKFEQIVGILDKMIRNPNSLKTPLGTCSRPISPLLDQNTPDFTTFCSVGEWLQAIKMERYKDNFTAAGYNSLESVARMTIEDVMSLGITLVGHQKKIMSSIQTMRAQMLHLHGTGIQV
Serine/threonine-protein kinase PAK 6 (Homo sapiens), sequence (Q9NQU5 whole entry, looked up): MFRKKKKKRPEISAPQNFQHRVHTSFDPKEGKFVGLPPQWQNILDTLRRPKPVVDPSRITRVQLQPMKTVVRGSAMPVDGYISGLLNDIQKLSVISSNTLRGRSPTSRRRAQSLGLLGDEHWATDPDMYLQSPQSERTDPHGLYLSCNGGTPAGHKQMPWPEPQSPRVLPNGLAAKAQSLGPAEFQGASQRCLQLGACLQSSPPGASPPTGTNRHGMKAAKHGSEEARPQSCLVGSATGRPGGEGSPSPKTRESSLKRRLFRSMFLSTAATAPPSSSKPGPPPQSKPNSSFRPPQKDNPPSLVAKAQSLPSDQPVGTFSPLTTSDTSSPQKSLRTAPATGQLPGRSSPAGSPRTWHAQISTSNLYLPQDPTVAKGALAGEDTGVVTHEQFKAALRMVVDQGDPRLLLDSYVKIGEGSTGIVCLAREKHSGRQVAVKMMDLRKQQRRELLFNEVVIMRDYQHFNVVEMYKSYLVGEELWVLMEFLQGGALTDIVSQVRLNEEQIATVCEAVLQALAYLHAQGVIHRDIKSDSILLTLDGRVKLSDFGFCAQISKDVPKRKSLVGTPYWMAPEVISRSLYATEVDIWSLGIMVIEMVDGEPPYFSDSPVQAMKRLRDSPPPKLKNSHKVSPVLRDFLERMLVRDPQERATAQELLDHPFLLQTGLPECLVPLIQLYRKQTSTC
NUAK family SNF1-like kinase 1 (Homo sapiens), sequence (O60285 whole entry): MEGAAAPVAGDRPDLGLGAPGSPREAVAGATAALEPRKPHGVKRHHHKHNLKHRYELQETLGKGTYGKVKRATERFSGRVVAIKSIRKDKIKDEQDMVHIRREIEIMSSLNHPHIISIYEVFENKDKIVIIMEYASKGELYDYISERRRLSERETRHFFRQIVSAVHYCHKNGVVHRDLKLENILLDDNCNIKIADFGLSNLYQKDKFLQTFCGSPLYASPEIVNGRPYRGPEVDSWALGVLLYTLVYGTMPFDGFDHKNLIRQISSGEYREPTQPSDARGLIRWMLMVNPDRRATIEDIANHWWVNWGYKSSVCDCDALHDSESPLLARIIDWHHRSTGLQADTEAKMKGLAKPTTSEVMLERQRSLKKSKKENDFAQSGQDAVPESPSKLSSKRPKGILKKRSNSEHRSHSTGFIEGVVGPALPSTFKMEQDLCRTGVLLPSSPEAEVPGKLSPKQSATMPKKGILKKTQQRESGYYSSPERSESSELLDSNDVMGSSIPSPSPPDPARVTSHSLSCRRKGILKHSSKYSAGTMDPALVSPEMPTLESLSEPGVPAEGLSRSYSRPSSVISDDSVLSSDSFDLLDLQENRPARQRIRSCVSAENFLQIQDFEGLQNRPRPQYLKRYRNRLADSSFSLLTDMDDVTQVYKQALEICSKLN
Aurora kinase A (Homo sapiens), sequence (O14965 whole entry): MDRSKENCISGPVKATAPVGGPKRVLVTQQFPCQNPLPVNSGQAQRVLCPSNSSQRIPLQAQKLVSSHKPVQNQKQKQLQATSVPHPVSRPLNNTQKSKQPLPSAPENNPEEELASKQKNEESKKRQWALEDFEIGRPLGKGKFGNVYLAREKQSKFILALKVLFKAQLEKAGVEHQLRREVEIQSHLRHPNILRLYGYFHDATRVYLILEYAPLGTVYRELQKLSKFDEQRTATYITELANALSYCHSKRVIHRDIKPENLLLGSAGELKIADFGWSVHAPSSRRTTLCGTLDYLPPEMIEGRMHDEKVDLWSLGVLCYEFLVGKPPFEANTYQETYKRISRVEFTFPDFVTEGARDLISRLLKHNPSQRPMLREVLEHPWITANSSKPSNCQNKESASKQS

SMILES: CC1(C)OCc2c(Nc3n[nH]c4ccccc34)nc(-c3cn[nH]c3)nc21
- inhibition [1]: -0.5%
- fAUC (Rattus norvegicus): 0.05 µM·h
- inhibition [2]: 5.4%
- inhibition [3]: 1.3%
- inhibition [4]: -1.4%
- inhibition [5]: 8.8%
- inhibition [6]: 12%
- inhibition [7]: 1.8%
- inhibition [8]: 11.6%
- inhibition [9]: 5.1%
- inhibition [10]: -5.4%
- inhibition [11]: 44.5%
- inhibition [12]: 0.7%
- inhibition [13]: 19%
- inhibition [14]: -1.3%
- inhibition [15]: 14.5%
- inhibition [16]: -3.1%
- inhibition [17]: 0.8%
- inhibition [18]: 35.9%
- inhibition [19]: 32%
- inhibition [20]: 7.8%
- inhibition [21]: 4.2%
- inhibition [22]: -1.5%
- inhibition [23]: 7.5%
- inhibition [24]: 3.4%
- inhibition [25]: 6.7%
- inhibition [26]: 1.6%
- inhibition [27]: 4.9%
- inhibition [28]: 66%
- inhibition [29]: 90.6%
- inhibition [30]: 6%
- inhibition [31]: 13.7%
- inhibition [32]: 8.4%
- inhibition [33]: 24.8%
- inhibition [34]: 51.3%
- inhibition [35]: 11.4%
- inhibition [36]: -0.3%
- inhibition [37]: 4.2%
- inhibition [38]: 20.6%
- inhibition [39]: 8.1%
- inhibition [40]: 2.8%
- inhibition [41]: 4.5%
- inhibition [42]: 2%
